Experimental data: US11771772B2, “Glycemic control using intrinsic factor bound to a vitamin B12 conjugate of a glucagon-like peptide-1 receptor agonist” (Syracuse University, priority 2015, dated 2023)
Read-outs that look alike come from different tables or passages of the source.

Columns and labels:
Intrinsic factor [1] = target: T1, Intrinsic factor (Homo sapiens, UniProt P27352); experiment: IF binding, chase experiment with 57Co radiolabeled B12; conditions: read-out: binding affinity to IF
T1 construct: purchased Xeragenx LLC XGX-003; host or cells: Arabidopsis (transgenic plant)
T1 sequence (P27352 19-417): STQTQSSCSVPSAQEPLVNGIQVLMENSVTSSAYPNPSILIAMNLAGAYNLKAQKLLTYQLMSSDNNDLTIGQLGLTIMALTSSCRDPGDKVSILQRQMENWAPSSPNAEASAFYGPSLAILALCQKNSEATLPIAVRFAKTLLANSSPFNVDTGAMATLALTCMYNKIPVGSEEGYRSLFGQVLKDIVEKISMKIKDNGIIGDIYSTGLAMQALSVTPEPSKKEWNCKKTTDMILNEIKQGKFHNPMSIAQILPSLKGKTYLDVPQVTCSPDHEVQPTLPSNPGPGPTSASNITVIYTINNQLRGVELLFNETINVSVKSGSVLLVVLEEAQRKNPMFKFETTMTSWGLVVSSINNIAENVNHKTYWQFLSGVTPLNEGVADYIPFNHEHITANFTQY
Description: Peptides were purchased through CSBio (Menlo Park, Calif.) and all materials were purchased through Sigma-Aldrich unless stated otherwise. Apo-IF was supplied by Xeragenx LLC (cat no: XGX-003). […] IF used in these assays was produced in the plant Arabidopsis in the apo-form and of high purity

Intrinsic factor [2] = target: T1, Intrinsic factor; conditions: general statement in description; read-out: IF binding affinity (Kd); cited from earlier work

Kd (Intrinsic factor [1]): 0.12 nM
Substance: cyanocobalamin [Compound B12]
Kd (Intrinsic factor [2]): ~1 pM
